Results from patent US20260262643A1, “HERBICIDAL BENZOXAZINES” (FMC CORPORATION, priority 2022, published 2026).

Legend:
oat, wild [1] = test: Test C preemergence; format: in vivo, Avena fatua; conditions: 0 to 100 scale (0 no effect, 100 complete control); for Oat, Wild plant response rating: preemergence
Method in brief: (§1)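 Visual injury ratings on a 0–100 scale (100 = complete control) were made against untreated controls 10 days after treatment in the greenhouse. Compounds, formulated with surfactant in non-phytotoxic solvent, were sprayed on soil preemergence or onto one- to two-leaf plants 2–10 cm tall postemergence.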

ryegrass, Italian [2] = test: Test C preemergence; format: in vivo, Lolium multiflorum; conditions: 0 to 100 scale (0 no effect, 100 complete control); for Ryegrass, Italian plant response rating: preemergence
Method in brief: as §1

oat, wild [3] = test: Test C postemergence; format: in vivo, Avena fatua; conditions: 10 days
Method in brief: as §1

kochia [4] = test: Test C postemergence; format: in vivo, Bassia scoparia; conditions: 10 days
Method in brief: as §1

green foxtail [5] = test: Test C postemergence; format: in vivo, Setaria viridis; conditions: 10 days
Method in brief: as §1

pigweed, palmer [6] = test: Test C postemergence; format: in vivo, Amaranthus palmeri; conditions: 10 days
Method in brief: as §1

blackgrass [7] = test: Test C postemergence; format: in vivo, Alopecurus myosuroides; conditions: 10 days
Method in brief: as §1

ryegrass, Italian [8] = test: Test C postemergence; format: in vivo, Lolium multiflorum; conditions: 10 days
Method in brief: as §1

soybean [9] = test: Test C postemergence; format: in vivo, Glycine max; conditions: 10 days
Method in brief: as §1

sedge, umbrella = test: Test D flooded paddy test; format: in vivo, Cyperus difformis; conditions: 250 g ai/ha, applied to paddy water, visual rating after 13 to 14 days, scale 0 to 100 (0 no effect, 100 complete control)
Method in brief: (§2)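 2-leaf plants; flood 3 cm above soil; compound dosed into paddy water; greenhouse 13–14 d; visual rating vs controls, 0–100 (100 = complete control); dash = not tested.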

corn [10] = test: Test C postemergence; format: in vivo, Zea mays; conditions: 10 days
Method in brief: as §1

barnyardgrass [11] = test: Test C preemergence; format: in vivo, Echinochloa crusgalli; conditions: 0 to 100 scale (0 no effect, 100 complete control); for Barnyardgrass plant response rating: 125 g ai/ha, preemergence; for Plant response rating, Barnyardgrass: Preemergence, 500 g ai/ha, visual rating after 10 days
Method in brief: as §1

horseweed = test: Test C postemergence; format: in vivo, Erigeron canadensis; conditions: 10 days
Method in brief: as §1

rice = test: Test D flooded paddy test; format: in vivo, Oryza sativa; conditions: 250 g ai/ha, applied to paddy water, visual rating after 13 to 14 days, scale 0 to 100 (0 no effect, 100 complete control)
Method in brief: as §2

ragweed [12] = test: Test C postemergence; format: in vivo, Ambrosia artemisiifolia; conditions: 10 days
Method in brief: as §1

wheat [13] = test: Test C postemergence; format: in vivo, Triticum aestivum; conditions: 10 days
Method in brief: as §1

blackgrass [14] = test: Test C preemergence; format: in vivo, Alopecurus myosuroides; conditions: 0 to 100 scale (0 no effect, 100 complete control); for Plant response rating, Blackgrass: Preemergence, 500 g ai/ha, visual rating after 10 days; for Blackgrass plant response rating: Test C, preemergence, 125 g ai/ha
Method in brief: as §1

barnyardgrass [15] = test: Test D flooded paddy test; format: in vivo, Echinochloa crus-galli; conditions: 250 g ai/ha, applied to paddy water, visual rating after 13 to 14 days, scale 0 to 100 (0 no effect, 100 complete control)
Method in brief: as §2

ducksalad = test: Test D flooded paddy test; format: in vivo, Heteranthera limosa; conditions: 250 g ai/ha, applied to paddy water, visual rating after 13 to 14 days, scale 0 to 100 (0 no effect, 100 complete control)
Method in brief: as §2

green foxtail [16] = test: Test C preemergence; format: in vivo, Setaria viridis; conditions: 0 to 100 scale (0 no effect, 100 complete control); for Foxtail, Green plant response rating: preemergence
Method in brief: as §1

wheat [17] = test: Test C preemergence; format: in vivo, Triticum aestivum; conditions: 0 to 100 scale (0 no effect, 100 complete control); for Wheat plant response rating: preemergence
Method in brief: as §1

kochia [18] = test: Test C preemergence; format: in vivo, Bassia scoparia; conditions: 0 to 100 scale (0 no effect, 100 complete control); for Kochia plant response rating: preemergence
Method in brief: as §1

pigweed, palmer [19] = test: Test C preemergence; format: in vivo, Amaranthus palmeri; conditions: 0 to 100 scale (0 no effect, 100 complete control); for Pigweed, Palmer plant response rating: preemergence
Method in brief: as §1

galium = test: Test C postemergence; format: in vivo, Galium aparine; conditions: 10 days
Method in brief: as §1

soybean [20] = test: Test C preemergence; format: in vivo, Glycine max; conditions: 0 to 100 scale (0 no effect, 100 complete control); for Soybean plant response rating: preemergence
Method in brief: as §1

ragweed [21] = test: Test C preemergence; format: in vivo, Ambrosia artemisiifolia; conditions: 0 to 100 scale (0 no effect, 100 complete control); for Ragweed plant response rating: preemergence
Method in brief: as §1

corn [22] = test: Test C preemergence; format: in vivo, Zea mays; conditions: 0 to 100 scale (0 no effect, 100 complete control); for Corn plant response rating: preemergence
Method in brief: as §1

barnyardgrass [23] = test: Test C postemergence; format: in vivo, Echinochloa crusgalli; conditions: 10 days
Method in brief: as §1

[24] = Preemergence, 500 g ai/ha, visual rating after 10 days
[25] = 125 g ai/ha, postemergence, 0 to 100 scale, 0 no effect, 100 complete control
[26] = Postemergence, 500 g ai/ha, visual 0 to 100 scale (0 no effect, 100 complete control)

## CCc1c(F)cc(-n2cnc(C(C)C)n2)cc1C(=O)N1C[C@H](C)Oc2c(Cl)cccc21 [Compound 152]
oat, wild [1]; [24]
  Plant response rating, Oat, Wild: 70
oat, wild [1]; Test C, 125 g ai/ha
  Oat, Wild plant response rating: 60
ryegrass, Italian [2]; [24]
  Plant response rating, Ryegrass, Italian: 90
ryegrass, Italian [2]; Test C, 125 g ai/ha
  Ryegrass, Italian plant response rating: 70
oat, wild [3]; [25]
  Plant response rating, Oat, Wild: 0
oat, wild [3]; [26]
  Plant response rating, Oat, Wild: 30
Kochia [4]; [25]
  Plant response rating, Kochia: 80
Kochia [4]; [26]
  Plant response rating, Kochia: 80
Green foxtail [5]; [25]
  Plant response rating, Foxtail, Green: 40
Green foxtail [5]; [26]
  Plant response rating, Foxtail, Green: 90
pigweed, palmer [6]; [25]
  Plant response rating, Pigweed, Palmer: 80
pigweed, palmer [6]; [26]
  Plant response rating, Pigweed, Palmer: 90
Blackgrass [7]; [25]
  Plant response rating, Blackgrass: 50
Blackgrass [7]; [26]
  Plant response rating, Blackgrass: 70
ryegrass, Italian [8]; [25]
  Plant response rating, Ryegrass, Italian: 30
ryegrass, Italian [8]; [26]
  Plant response rating, Ryegrass, Italian: 60
Soybean [9]; [25]
  Plant response rating, Soybean: 100
Soybean [9]; [26]
  Plant response rating, Soybean: 100
sedge, umbrella
  Plant response rating, Sedge, Umbrella (Flood): 0
Corn [10]; [25]
  Plant response rating, Corn: 40
Corn [10]; [26]
  Plant response rating, Corn: 70
Barnyardgrass [11]
  Barnyardgrass plant response rating: 70
  Plant response rating, Barnyardgrass: 90
horseweed; [25]
  Plant response rating, Horseweed: 0
horseweed; [26]
  Plant response rating, Horseweed: 0
rice
  Plant response rating, Rice (Flood): 0
Ragweed [12]; [25]
  Plant response rating, Ragweed: 40
Ragweed [12]; [26]
  Plant response rating, Ragweed: 60
Wheat [13]; [25]
  Plant response rating, Wheat: 20
Wheat [13]; [26]
  Plant response rating, Wheat: 20
Blackgrass [14]
  Plant response rating, Blackgrass: 60
  Blackgrass plant response rating: 50
Barnyardgrass [15]
  Plant response rating, Barnyardgrass (Flood): 0
ducksalad
  Plant response rating, Ducksalad (Flood): 0
Green foxtail [16]; [24]
  Plant response rating, Foxtail, Green: 100
Green foxtail [16]; Test C, 125 g ai/ha
  Foxtail, Green plant response rating: 100
Wheat [17]; [24]
  Plant response rating, Wheat: 40
Wheat [17]; Test C, 125 g ai/ha
  Wheat plant response rating: 20
Kochia [18]; [24]
  Plant response rating, Kochia: 90
Kochia [18]; Test C, 125 g ai/ha
  Kochia plant response rating: 40
pigweed, palmer [19]; [24]
  Plant response rating, Pigweed, Palmer: 90
pigweed, palmer [19]; Test C, 125 g ai/ha
  Pigweed, Palmer plant response rating: 90
galium; [25]
  Plant response rating, Galium: 100
galium; [26]
  Plant response rating, Galium: 100
Soybean [20]; [24]
  Plant response rating, Soybean: 70
Soybean [20]; Test C, 125 g ai/ha
  Soybean plant response rating: 50
Ragweed [21]; [24]
  Plant response rating, Ragweed: 0
Ragweed [21]; Test C, 125 g ai/ha
  Ragweed plant response rating: 0
Corn [22]; [24]
  Plant response rating, Corn: 50
Corn [22]; Test C, 125 g ai/ha
  Corn plant response rating: 30
Barnyardgrass [23]; [25]
  Plant response rating, Barnyardgrass: 60
Barnyardgrass [23]; [26]
  Plant response rating, Barnyardgrass: 90

## COc1ccc(-n2cnc(C(C)C)n2)cc1C(=O)N1C[C@H](C)Oc2c(F)cccc21 [Compound 269]
oat, wild [1]; 500 g ai/ha
  Oat, Wild plant response rating: 90
oat, wild [1]; Test C, 125 g ai/ha
  Oat, Wild plant response rating: 60
ryegrass, Italian [2]; 500 g ai/ha
  Ryegrass, Italian plant response rating: 100
ryegrass, Italian [2]; Test C, 125 g ai/ha
  Ryegrass, Italian plant response rating: 100
oat, wild [3]; [25]
  Plant response rating, Oat, Wild: 80
Kochia [4]; [25]
  Plant response rating, Kochia: 80
Green foxtail [5]; [25]
  Plant response rating, Foxtail, Green: 90
Green foxtail [5]; [26]
  Plant response rating, Foxtail, Green: 90
pigweed, palmer [6]; [25]
  Plant response rating, Pigweed, Palmer: 90
Blackgrass [7]; [25]
  Plant response rating, Blackgrass: 80
Blackgrass [7]; [26]
  Plant response rating, Blackgrass: 90
ryegrass, Italian [8]; [25]
  Plant response rating, Ryegrass, Italian: 100
Soybean [9]; [25]
  Plant response rating, Soybean: 100
sedge, umbrella
  Plant response rating, Sedge, Umbrella (Flood): 98
Corn [10]; [25]
  Plant response rating, Corn: 80
Corn [10]; [26]
  Plant response rating, Corn: 100
Barnyardgrass [11]
  Plant response rating, Barnyardgrass: 100
Barnyardgrass [11]; Test C
  Barnyardgrass plant response rating: 100
horseweed; [25]
  Plant response rating, Horseweed: 20
horseweed; [26]
  Plant response rating, Horseweed: 90
rice
  Plant response rating, Rice (Flood): 10
Ragweed [12]; [25]
  Plant response rating, Ragweed: 70
Wheat [13]; [25]
  Plant response rating, Wheat: 80
Blackgrass [14]
  Plant response rating, Blackgrass: 90
  Blackgrass plant response rating: 90
Barnyardgrass [15]
  Plant response rating, Barnyardgrass (Flood): 45
ducksalad
  Plant response rating, Ducksalad (Flood): 100
Green foxtail [16]; 500 g ai/ha
  Foxtail, Green plant response rating: 100
Green foxtail [16]; Test C, 125 g ai/ha
  Foxtail, Green plant response rating: 100
Wheat [17]; 500 g ai/ha
  Wheat plant response rating: 100
Wheat [17]; Test C, 125 g ai/ha
  Wheat plant response rating: 100
Kochia [18]; 500 g ai/ha
  Kochia plant response rating: 100
Kochia [18]; Test C, 125 g ai/ha
  Kochia plant response rating: 90
pigweed, palmer [19]; 500 g ai/ha
  Pigweed, Palmer plant response rating: 100
pigweed, palmer [19]; Test C, 125 g ai/ha
  Pigweed, Palmer plant response rating: 100
galium; [25]
  Plant response rating, Galium: 90
galium; [26]
  Plant response rating, Galium: 100
Soybean [20]; 500 g ai/ha
  Soybean plant response rating: 90
Soybean [20]; Test C, 125 g ai/ha
  Soybean plant response rating: 90
Ragweed [21]; 500 g ai/ha
  Ragweed plant response rating: 100
Ragweed [21]; Test C, 125 g ai/ha
  Ragweed plant response rating: 100
Corn [22]; 500 g ai/ha
  Corn plant response rating: 90
Corn [22]; Test C, 125 g ai/ha
  Corn plant response rating: 20
Barnyardgrass [23]; [25]
  Plant response rating, Barnyardgrass: 80
Barnyardgrass [23]; [26]
  Plant response rating, Barnyardgrass: 100
